Source: PubChem BioAssay (NCI)
Several values for one entry are separate records, joined by “and”; a condition that tells them apart may be missing. Equal entries are not always repeated.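 Method: 48-hour compound exposure of cells in 96-well plates, five concentrations, linear interpolation of endpoints. Abbreviation: GI50, concentration required for 50% inhibition of growth. At the TGI there is no net growth.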

Tests used:
Assay in all cases: DTP human tumour cell line panel, 48 h
COLO 205 colon = tested on: COLO 205 colon
EKVX NSCLC = tested on: EKVX NSCLC
HCC-2998 colon = tested on: HCC-2998 colon
KM12 colon = tested on: KM12 colon
M19-MEL melanoma = tested on: M19-MEL melanoma
OVCAR-3 ovarian = tested on: OVCAR-3 ovarian
RXF 393 renal = tested on: RXF 393 renal
SF-539 CNS = tested on: SF-539 CNS
U251 CNS = tested on: U251 CNS
UACC-257 melanoma = tested on: UACC-257 melanoma

SMILES | TGI (COLO 205 colon) | TGI (EKVX NSCLC) | TGI (HCC-2998 colon) | TGI (KM12 colon) | TGI (M19-MEL melanoma) | TGI (OVCAR-3 ovarian) | TGI (RXF 393 renal) | TGI (SF-539 CNS) | TGI (U251 CNS) | TGI (UACC-257 melanoma) | GI50 (COLO 205 colon) | GI50 (EKVX NSCLC) | GI50 (KM12 colon) | GI50 (OVCAR-3 ovarian) | GI50 (RXF 393 renal) | GI50 (SF-539 CNS) | GI50 (U251 CNS) | GI50 (UACC-257 melanoma) | GI50 (HCC-2998 colon)
C=CCC1[C@@H](C(C)(C)C(C(C)=O)C(=O)C(=O)OC)OC(C(C)(C)C)N1C(=O)OC (stereo partly specified) | > 100 µM | > 100 µM | > 100 µM | > 100 µM | > 100 µM | > 100 µM | > 100 µM | > 100 µM | > 100 µM | > 100 µM | – | – | – | – | – | – | – | – | –
CC(CC(=O)Nc1ccc(NC(=O)CC(C)N=NC(N)=S)cc1)N=NC(N)=S (stereo unspecified) | > 100 µM | > 100 µM | > 100 µM | > 100 µM | > 100 µM | > 100 µM | > 100 µM | > 100 µM | – | > 100 µM | – | – | – | – | – | – | – | – | –
C#CCC(N)(CO)C(=O)O (stereo unspecified) | > 100 µM | > 100 µM | > 100 µM | > 100 µM | > 100 µM | > 100 µM | – | > 100 µM | > 100 µM | > 100 µM | – | – | – | – | – | – | – | – | –
Cl[Si]1(Cl)Oc2ccccc2O[Si](Cl)(Cl)Oc2ccccc2O1 | 59.7 µM | > 100 µM | 53.5 µM | > 100 µM | 25.3 µM | > 100 µM | – | 97.9 µM | > 100 µM | – | – | – | – | – | – | – | – | – | –
Cc1cc2c(Br)cc(Br)c(O)c2nc1C(=O)c1ccccc1 | 55.7 µM | > 100 µM | > 68.2 µM | > 100 µM | 32.2 µM | > 79 µM | > 83.6 µM | 97 µM | > 71.3 µM | > 65.7 µM | – | – | – | – | – | – | – | – | –
CC1(Cc2ccccc2)NC(=S)NC1=O (stereo unspecified) | > 100 µM | > 100 µM | > 100 µM | > 100 µM | > 100 µM | – | > 100 µM | > 100 µM | > 100 µM | > 100 µM | – | – | – | – | – | – | – | – | –
COc1c(Br)cc(Br)c(OC)c1-c1[nH]c(Br)c(Br)c1Br | 28 µM | 21.1 µM | 19.2 µM | 21.1 µM | 23 µM | 14.3 µM | 6.01 µM | 21.8 µM | 25.7 µM | 19.2 µM | – | – | – | – | – | – | – | – | –
CC1(c2ccccc2)CC(c2ccccc2)=NO1 (stereo unspecified) | > 100 µM | > 100 µM | > 100 µM | > 100 µM | > 100 µM | > 100 µM | – | > 100 µM | > 100 µM | > 100 µM | – | – | – | – | – | – | – | – | –
O=C1C=C(O)c2[nH]c(=O)ccc2C1=O | > 100 µM | > 100 µM | > 100 µM | – | > 100 µM | > 100 µM | > 100 µM | > 100 µM | > 100 µM | > 100 µM | – | – | – | – | – | – | – | – | –
O=c1c(Cl)c(Cl)cnn1CCc1ccncc1 | – | 36.2 µM | 27.9 µM | 28.1 µM | 30.8 µM | 31.4 µM | 42.2 µM | 43.4 µM | – | 34.1 µM | – | – | – | – | – | – | – | – | –
CC(C)c1ccccc1NC(=O)/C(Cl)=C1/Sc2ccccc2NC1=O | 74.6 µM | > 100 µM | 93.3 µM | – | > 100 µM | – | 49.6 µM | 57.7 µM | > 100 µM | – | – | – | – | – | – | – | – | – | –
Cc1ccc(S(=O)(=O)N/N=C(\c2nc3ccc([N+](=O)[O-])cc3[nH]c2=O)C(O)c2ccccc2Cl)cc1 (stereo unspecified) | > 100 µM | > 100 µM | > 100 µM | > 100 µM | > 100 µM | > 100 µM | – | > 100 µM | > 100 µM | > 100 µM | – | – | – | – | – | – | – | – | –
O=C1C2=C(c3ccccc31)C(c1ccccc1Cl)N1C(=O)CCSC1=N2 (stereo unspecified) | > 100 µM | > 100 µM | > 100 µM | > 100 µM | > 100 µM | > 100 µM | – | > 100 µM | > 100 µM | > 100 µM | – | – | – | – | – | – | – | – | –
CCN(CC)CCNC(=O)c1c(C)[nH]c(/C=C2\C(=O)Nc3ccc(F)cc32)c1C | > 10 µM and 5.84 µM and 8.8 µM | > 10 µM and 20 µM and 21.9 µM | > 10 µM and 7.03 µM and 3.06 µM | > 10 µM and 3.03 µM and 5.54 µM | – | > 10 µM and 6.34 µM and 7.54 µM | 8.47 µM and 4.56 µM and 4.37 µM | 6.7 µM and 5.41 µM and 2.72 µM | > 10 µM and 6.34 µM and 7.54 µM | > 10 µM and 5.21 µM and 8.69 µM | 3.57 µM and 2.98 µM and 3.39 µM | > 10 µM and 5.27 µM and 8.38 µM | 0.11 µM and 0.1 µM and 0.0322 µM | > 10 µM and 3.41 µM and 3.33 µM | 1.19 µM and 1.45 µM and 1.38 µM | 1.38 µM and 2.36 µM and 1.21 µM | 5.33 µM and 3.06 µM and 2.25 µM | > 10 µM and 2.49 µM and 3.24 µM | –
C=C1CC2(OC1=O)C(=O)N(CCCN1C(=O)C3(CC(=C)C(=O)O3)c3ccccc31)c1ccccc12 (stereo unspecified) | 2.03 µM | 26.7 µM | 4.53 µM | 12 µM | – | 1.83 µM | 2.83 µM | 3.43 µM | 18.7 µM | 3.95 µM | 0.52 µM | 13.6 µM | 2.72 µM | 0.571 µM | 1.32 µM | 1.76 µM | 5.45 µM | 1.66 µM | 2.14 µM
O=C(/C=C/c1ccccc1)CC(c1ccccc1)N1CCOCC1 (stereo unspecified) | 5.64 µM | 22.3 µM | 3.54 µM | 3.72 µM | – | 11.6 µM | 3.03 µM | 5.98 µM | 5.21 µM | 18.8 µM | 2.45 µM | 9.52 µM | 1.99 µM | 3.71 µM | 1.61 µM | 2.24 µM | 2.44 µM | 5.63 µM | 1.9 µM
COc1cc2cnc3c4ccccc4ccc3c2cc1OC | > 100 µM | > 100 µM | > 100 µM | > 100 µM | > 100 µM | > 100 µM | – | – | > 100 µM | > 100 µM | – | – | – | – | – | – | – | – | –
N=S(c1ccccc1)c1ccccc1[N+](=O)[O-] (stereo unspecified) | 34 µM | 38.5 µM | 33.4 µM | 32.7 µM | 29.7 µM | 23.2 µM | – | 37.8 µM | 31.2 µM | 32.2 µM | – | – | – | – | – | – | – | – | –
Cc1nc(Nc2n[nH]c3c2CN(C(=O)N[C@H](CN(C)C)c2ccccc2)C3(C)C)c2sccc2n1 | 0.241 µM and 0.279 µM | > 8.27 µM and 23.6 µM | 2.22 µM and 3.98 µM | > 4.68 µM and 4.45 µM | – | 1.57 µM and 7.36 µM | 1.89 µM and 2.53 µM | 3.68 µM and 2.98 µM | > 7.15 µM and 8.11 µM | 1.27 µM and 4.34 µM | 0.00866 µM and < 0.0109 µM | 0.0907 µM and 0.14 µM | 0.0493 µM and 0.0739 µM | 0.0255 µM and 0.0584 µM | 0.143 µM and 0.751 µM | 0.382 µM and 0.149 µM | 0.0242 µM and 0.0325 µM | < 0.0106 µM | 0.0135 µM and 0.0453 µM
C=CCSc1nc2ccccc2c(=O)n1Cc1ccco1 | > 100 µM | > 100 µM | > 100 µM | > 100 µM | – | > 100 µM | > 100 µM | > 100 µM | > 100 µM | > 100 µM | – | – | – | – | – | – | – | – | –
CCN(CC)CC(=O)N1CCc2c([nH]c3ccccc23)C1c1cccnc1 (stereo unspecified) | – | > 100 µM | > 100 µM | > 100 µM | > 100 µM | > 100 µM | – | > 100 µM | > 100 µM | > 100 µM | – | – | – | – | – | – | – | – | –
